Data published in patent US20140005103A1, “SULFONAMIDE DERIVATIVES AND METHODS OF USE THEREOF FOR IMPROVING THE PHARMACOKINETICS OF A DRUG” (Merck, Sharp & Dohme Corp., priority 2012, published 2014).

How the values were obtained:
[1] = target: T1, CYP1A2 (Homo sapiens, UniProt P05177); test: Cocktail CYP assay, phenacetin O-deethylation; type: in vitro ADME; conditions: human liver microsomes, 10 μM phenacetin; test concentrations up to 10 μM
T1 construct: 0.1 mg/mL protein human liver microsomes (BD Gentest); tissue BD Gentest; host or cells: human liver microsomes
T1 sequence (P05177 1-516): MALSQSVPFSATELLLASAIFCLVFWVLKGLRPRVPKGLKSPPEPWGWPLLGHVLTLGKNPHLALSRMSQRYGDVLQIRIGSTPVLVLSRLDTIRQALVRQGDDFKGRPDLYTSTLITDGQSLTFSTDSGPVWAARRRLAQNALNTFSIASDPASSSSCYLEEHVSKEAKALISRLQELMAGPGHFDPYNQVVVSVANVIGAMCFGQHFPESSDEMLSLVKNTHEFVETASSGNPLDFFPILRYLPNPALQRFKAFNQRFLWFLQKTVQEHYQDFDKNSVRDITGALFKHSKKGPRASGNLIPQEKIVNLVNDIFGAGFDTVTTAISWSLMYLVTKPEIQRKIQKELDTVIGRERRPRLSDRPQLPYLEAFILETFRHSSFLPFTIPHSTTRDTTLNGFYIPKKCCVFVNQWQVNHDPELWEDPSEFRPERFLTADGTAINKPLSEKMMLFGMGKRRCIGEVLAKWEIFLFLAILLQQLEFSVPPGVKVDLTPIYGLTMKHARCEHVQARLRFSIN
Method: (§1) Determination of IC50 in a Cocktail Assay for CYPs 1A2, 2C9, 2C19, 2D6 and 3A4
(§2) This assay was performed in a standard 96-well plate design. IC50 values were calculated from the percent inhibition observed for each test compound at 6 concentrations (for example, 0.0032, 0.016, 0.08, 0.4, 2 and 10 μM). The incubation substrate mix contains 10 μM phenacetin (1A2), 5 μM diclofenac (2C9), 30 μM mephenyloin (2C19), 5 μM dextromethorphan (2D6) and 2 μM midazolam (3A4), 0.1 mg/mL protein human liver microsomes (BD Gentest), 1 mM NAPDH, 3.3 mM MgCl2 and 100 mM potassium phosphate buffer (pH 7.4). The production of the metabolite of each probe substrate was determined after incubation for 10 min at 37° C. Quantitation of the metabolite peak area ratio against an internal standard (tolbutamide) was determined by LC/MS/MS analysis following acetonitrile treatment of the incubations.
(§3) Samples were analyzed in the MRM mode with a SCIEX API-4000 mass spectrometer (Applied Biosystems, Foster City, Calif.), with a Shimadzu LC-20 AD pump (Shimadzu corporation, Kyoto, JP) and a CTC PAL autosampler (Agilent Technologies, Switzerland). A Phenomenex, Luna, […], 100 A, 2.00×30 mm HPLC column was used for the separation. The mobile phases were: (A) 0.1% formic acid in water and (B) 0.1% formic acid in acetonitrile. The binary gradient was as follows.
(§4) The peak area ratio of the analyte to the internal standard was used to quantify the metabolite. The values of peak area ratios in the presence of test compound were compared to those of maximum or minimum controls and were expressed as % inhibition by interpolating between the maximum and minimum peak area ratios. Incubations with no inhibitor were defined as the maxima.
(§5) The following equation was used to calculate the % inhibition:
(§6) [1−[(X−Low control)/(High control−Low control)]]*100
(§7) For the IC50 calculation, SigmaPlot was used to plot the mean % inhibition versus the test compound concentrations and for non-linear regression analysis of the data. Depending on the range of data points defining the inhibition curve, the data may have been fit to the 4-parameter logistic equation.

[2] = target: T2, CYP2C9 (Homo sapiens, UniProt P11712); test: Cocktail CYP assay, diclofenac 4'-hydroxylation; type: in vitro ADME; conditions: human liver microsomes, 5 μM diclofenac; test concentrations up to 10 μM
T2 construct: 0.1 mg/mL protein human liver microsomes (BD Gentest); tissue BD Gentest; host or cells: human liver microsomes
T2 sequence (P11712 whole entry): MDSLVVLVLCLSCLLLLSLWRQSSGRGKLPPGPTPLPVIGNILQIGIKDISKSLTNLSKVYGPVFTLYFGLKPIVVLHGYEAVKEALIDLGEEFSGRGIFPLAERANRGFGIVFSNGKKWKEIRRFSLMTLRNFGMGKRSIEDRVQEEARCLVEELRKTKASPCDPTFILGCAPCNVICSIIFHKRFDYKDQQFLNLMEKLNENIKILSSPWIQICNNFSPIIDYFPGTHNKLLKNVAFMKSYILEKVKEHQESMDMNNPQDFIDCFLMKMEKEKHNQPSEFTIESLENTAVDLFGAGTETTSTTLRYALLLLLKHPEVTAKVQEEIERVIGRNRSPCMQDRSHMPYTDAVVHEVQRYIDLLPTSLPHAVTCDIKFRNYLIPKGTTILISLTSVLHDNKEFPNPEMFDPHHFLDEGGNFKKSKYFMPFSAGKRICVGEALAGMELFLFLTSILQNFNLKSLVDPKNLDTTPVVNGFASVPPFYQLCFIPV
Method: as §1, §2, §3, §4, §5, §6, §7

[3] = target: T3, CYP2C19 (Homo sapiens, UniProt P33261); test: Cocktail CYP assay, mephenytoin 4'-hydroxylation; type: in vitro ADME; conditions: human liver microsomes, 30 μM mephenytoin; test concentrations up to 10 μM
T3 construct: 0.1 mg/mL protein human liver microsomes (BD Gentest); tissue BD Gentest; host or cells: human liver microsomes
T3 sequence (P33261 whole entry): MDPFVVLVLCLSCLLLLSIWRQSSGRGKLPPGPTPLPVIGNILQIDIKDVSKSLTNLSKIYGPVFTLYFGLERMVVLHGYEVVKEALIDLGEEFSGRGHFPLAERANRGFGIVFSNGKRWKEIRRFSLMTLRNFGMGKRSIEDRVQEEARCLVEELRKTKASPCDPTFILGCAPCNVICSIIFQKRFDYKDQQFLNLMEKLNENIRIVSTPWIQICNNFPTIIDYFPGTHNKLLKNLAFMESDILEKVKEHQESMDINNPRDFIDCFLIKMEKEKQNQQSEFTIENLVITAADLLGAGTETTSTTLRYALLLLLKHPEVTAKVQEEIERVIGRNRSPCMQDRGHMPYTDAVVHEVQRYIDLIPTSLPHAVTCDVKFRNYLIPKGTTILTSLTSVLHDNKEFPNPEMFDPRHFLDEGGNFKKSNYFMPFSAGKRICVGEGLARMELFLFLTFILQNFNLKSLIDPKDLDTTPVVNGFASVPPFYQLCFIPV
Method: as §1, §2, §3, §4, §5, §6, §7

[4] = target: T4, human CYP11B2 (Homo sapiens, UniProt P19099); test: IC50 vs CYP11B2 by aldosterone synthesis in V79 cells; type: cell-based; conditions: V79 cells expressing human CYP11B2, 750 nM DOC, aldosterone HTRF; test concentrations 0.5-10000 nM
T4 construct: expressed in transfected cells
T4 sequence (P19099 25-503): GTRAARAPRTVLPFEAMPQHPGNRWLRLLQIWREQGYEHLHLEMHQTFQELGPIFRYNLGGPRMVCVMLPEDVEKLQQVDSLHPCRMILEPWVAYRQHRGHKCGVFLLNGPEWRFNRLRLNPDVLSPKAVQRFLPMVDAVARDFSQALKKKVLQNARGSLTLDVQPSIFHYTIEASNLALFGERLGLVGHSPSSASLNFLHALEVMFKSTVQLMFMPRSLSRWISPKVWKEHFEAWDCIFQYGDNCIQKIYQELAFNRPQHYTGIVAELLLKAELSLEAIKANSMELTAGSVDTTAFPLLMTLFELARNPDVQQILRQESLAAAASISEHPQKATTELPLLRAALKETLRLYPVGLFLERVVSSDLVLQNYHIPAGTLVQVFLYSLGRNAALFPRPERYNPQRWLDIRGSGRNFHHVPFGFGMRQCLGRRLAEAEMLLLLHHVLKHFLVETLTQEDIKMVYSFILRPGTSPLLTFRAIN
Method: Determination of IC50 vs CYP11B1/CYP11B2 by Measurement of Cortisol/Aldosterone Synthesis
This assay was performed in a standard 384-well plate design using cultured V79 cells stably expressing human CYP11B1 or human CYP11B2. Test compounds at 10 concentrations (for example, 10000, 3333.3, 1111.1, 370.4, 123.5, 41.2, 13.7, 4.6, 1.5 and 0.5 nM) were added in 384-well plate after the cell-seeding procedure. The incubation substrate contains 1500 nM RSS for CYP11B1 assay/750 nM DOC for CYP11B2 assay. The
Cortisol/Aldosterone production of cell culture supernatant was determined by Cortisol/Aldosterone HTRF kit after for about 15 hours incubation at RT (protect from light). IC50 values were calculated from the percent inhibition observed for each test compound at 10 concentrations.
The assay plate was read using Envision (Perkin Elmer, Waltham, Mass.) at 665 nm and 590 nm (using Filter Barcode of 217#, 205#; Mirror Barcode of 446#).
Data are analyzed using Assay Data Analyzer. All ratio data (665 nm/590 nm) are back calculated according to the standard curve, resulting in Cortisol/Aldosterone concentrations. IC50 values are reported as the Inflection Point (IP) of a four parameter fit of the titration data.
as §5
% Activity=100×{1−(Sample_back calculated Cortisol/Aldosterone concentration−LC_back calculated Cortisol/Aldosterone concentration)/(HC_back calculated Cortisol/Aldosterone concentration−LC_back calculated Cortisol/Aldosterone concentration)}

IC50 [1]	IC50 [2]	IC50 [3]	IC50 [4]	SMILES
3.73 µM	4.7 µM	2.65 µM	2.47 µM	C[C@H](c1ccc(F)cc1)n1cncc1C1C(=O)OCC2CN(S(=O)(=O)c3cnc(Nc4ccc(C(F)(F)F)cn4)s3)CCN21 (stereo partly drawn) [Compound 39]
> 10 µM	> 10 µM	> 10 µM	> 10 µM	Cc1ccc(C2(n3cncc3CN3CCN(S(=O)(=O)c4cnc(N5CCN(C)CC5)s4)CC3)CC2)nc1 [Compound 31]
> 10 µM	3.22 µM	1.83 µM	0.077 µM	C[C@H](c1ccc(F)cc1)n1cncc1CN1CCN(S(=O)(=O)c2cnc(N3CCN(C)CC3)s2)CC1 [Compound 2]
> 10 µM	> 10 µM	7.51 µM	1.61 µM	CN1CCN(c2ncc(S(=O)(=O)N3CCN(Cc4cncn4CCOc4ccc(F)cn4)CC3)s2)CC1 [Compound 33]
> 10 µM	4.27 µM	7.21 µM	9.22 µM	C[C@H](c1ccc(F)cc1)n1cncc1CN1CCN(S(=O)(=O)c2cnc(N3CCN4C(=O)OC[C@H]4C3)s2)CC1 [Compound 26]
> 10 µM	1.41 µM	7.95 µM	1.93 µM	C[C@H](c1ccc(F)cc1)n1cncc1CN1CCN(S(=O)(=O)c2cnc(N3CCN4C[C@H](O)CC[C@H]4C3)s2)CC1 [Compound 19]
2.77 µM	4.5 µM	4.11 µM	2.24 µM	C[C@H](c1ccc(F)cc1)n1cncc1CN1CCN(S(=O)(=O)c2cnc(N3CC[C@@H](N4CCOCC4)[C@H](F)C3)s2)CC1 [Compound 20]
> 10 µM	4.12 µM	> 10 µM	3.92 µM	C[C@H](c1ccc(F)cc1)n1cncc1CN1CCN(S(=O)(=O)c2cnc(N3CCN(C4CCN(C)CC4)CC3)s2)CC1 [Compound 9]
> 10 µM	2.3 µM	2.16 µM	4.58 µM	C[C@H](c1ccc(F)cc1)n1cncc1CN1CCN(S(=O)(=O)c2cnc(N3CCN4C[C@H](O)C[C@H]4C3=O)s2)CC1 [Compound 18]
> 10 µM	5.01 µM	> 10 µM	4.57 µM	CC1CN(c2ncc(S(=O)(=O)N3CCN(Cc4cncn4[C@H](C)c4ccc(F)cc4)CC3)s2)C[C@@H]2C[C@@H](O)CN12 (stereo partly drawn) [Compound 23]
1.49 µM	9.12 µM	8.04 µM	4.6 µM	C[C@H](c1ccc(F)cc1)n1cncc1CN1CCN(S(=O)(=O)c2cnc(N3CC(=O)N4C[C@H](O)C[C@H]4C3)s2)CC1 [Compound 16]
> 10 µM	2.15 µM	8.02 µM	3.39 µM	C[C@H](c1ccc(F)cc1)n1cncc1CN1CCN(S(=O)(=O)c2cnc(N3CC[C@@H](N)[C@H](F)C3)s2)CC1 [Compound 11]
> 10 µM	1.84 µM	0.721 µM	0.445 µM	C[C@H](c1ccc(C#N)cc1)n1cncc1CN1CCN(S(=O)(=O)c2cnc(Nc3ccc(C(F)(F)F)cn3)s2)CC1 [Compound 4]
> 10 µM	9.73 µM	> 10 µM	> 10 µM	C[C@H](c1ccc(F)cc1)n1cncc1CN1CCN(S(=O)(=O)c2cnc(N3CCC(N)(CO)CC3)s2)CC1 [Compound 25]
> 10 µM	> 10 µM	> 10 µM	4.37 µM	C[C@H](c1ccc(F)cc1)n1cncc1CN1CCN(S(=O)(=O)c2cncc(N3CCNCC3)c2)CC1 [Compound 29]
> 10 µM	1.56 µM	3.44 µM	1.03 µM	CN1CCN(c2ncc(S(=O)(=O)N3CCN(Cc4cncn4CCOc4ccc(Cl)cc4)CC3)s2)CC1 [Compound 32]
5.81 µM	6.1 µM	> 10 µM	0.193 µM	CC(c1cncn1[C@H](C)c1ccc(F)cc1)N1CCN(S(=O)(=O)c2cnc(N3CCN4C[C@H](O)C[C@H]4C3)s2)CC1 (stereo partly drawn) [Compound 37]
> 10 µM	1.35 µM	> 10 µM	> 10 µM	C[C@H](c1ccc(F)cc1)n1cncc1CN1CCN(S(=O)(=O)c2cnc(N3CCN4C[C@H](O)CC4(C)C3)s2)CC1 (stereo partly drawn) [Compound 24]
> 10 µM	2.46 µM	> 10 µM	3.62 µM	C[C@H](c1ccc(F)cc1)n1cncc1CN1CCN(S(=O)(=O)c2cnc(N3CC[C@@H]4NCCO[C@H]4C3)s2)CC1 [Compound 15]
> 10 µM	0.357 µM	3.05 µM	3.9 µM	C[C@H](c1ccc(F)cc1)n1cncc1C1COCC2CN(S(=O)(=O)c3cnc(Nc4ccccn4)s3)CCN21 (stereo partly drawn) [Compound 40]
> 10 µM	1.77 µM	6.48 µM	2.27 µM	C[C@H](c1ccc(F)cc1)n1cncc1CN1CCN(S(=O)(=O)c2cnc(N3CCN4CCC(O)[C@H]4C3)s2)CC1 (stereo partly drawn) [Compound 27]
> 10 µM	1.16 µM	≥ 10 µM	> 10 µM	C[C@H](c1ccc(F)cc1)n1cncc1CN1CCN(S(=O)(=O)c2cnc(N3C[C@@H]4C[C@@H](O)CN4C[C@@H]3C)s2)CC1 [Compound 21]
> 10 µM	2.3 µM	2.53 µM	1.72 µM	C[C@H](c1ccc(F)cc1)n1cncc1CN1CCN(S(=O)(=O)c2cnc(N3CCNCC3)s2)CC1 [Compound 1]
> 10 µM	> 10 µM	> 10 µM	2.9 µM	C[C@H](c1ccc(F)cc1)n1cncc1CN1CCN(S(=O)(=O)c2cnc(N3CCNCC3)cn2)CC1 [Compound 30]
